Assay results taken from the NIST ThermoML archive (doi:10.1016/j.fluid.2019.05.015).

Assay: refractive index (Na D-line) (dimensionless); xn = mol fraction of the nth substance listed
Conditions: 100 kPa, Liquid, Standard Abbe refractometry

O=C1OCCO1 [ethylene carbonate] + CCn1cc[n+](C)c1.[Br-]
refractive index
Conditions | x1 = 0.106 | x1 = 0.222 | x1 = 0.2945 | x1 = 0.3671 | x1 = 0.4655 | x1 = 0.6002 | x1 = 0.7142 | x1 = 0.7981 | x1 = 0.8946
298.2 K | 1.5505 | 1.5405 | 1.531 | 1.5245 | 1.5105 | 1.498 | 1.4835 | 1.4695 | 1.45
308.2 K | 1.548 | 1.5385 | 1.529 | 1.5235 | 1.5085 | 1.4955 | 1.481 | 1.466 | 1.445
318.2 K | 1.5455 | 1.5345 | 1.5275 | 1.52 | 1.5065 | 1.493 | 1.4775 | 1.4635 | 1.4425

O=C1OCCO1 [ethylene carbonate] + O
Conditions | refractive index
298.2 K, x2 = 0.0993 | 1.4205
298.2 K, x2 = 0.1962 | 1.4175
298.2 K, x2 = 0.2943 | 1.414
298.2 K, x2 = 0.3321 | 1.4125
298.2 K, x2 = 0.4172 | 1.4085
298.2 K, x2 = 0.4758 | 1.4055
298.2 K, x2 = 0.5337 | 1.401
298.2 K, x2 = 0.5766 | 1.399
298.2 K, x2 = 0.6159 | 1.397
298.2 K, x2 = 0.6887 | 1.391
298.2 K, x2 = 0.7258 | 1.386
298.2 K, x2 = 0.7789 | 1.3805
298.2 K, x2 = 0.8239 | 1.375
298.2 K, x2 = 0.881 | 1.364
298.2 K, x2 = 0.9186 | 1.356
298.2 K, x2 = 0.9593 | 1.345
298.2 K, x2 = 0.9778 | 1.34
308.2 K, x2 = 0.0993 | 1.417
308.2 K, x2 = 0.1962 | 1.4145
308.2 K, x2 = 0.2943 | 1.411
308.2 K, x2 = 0.3321 | 1.409
308.2 K, x2 = 0.4172 | 1.4055
308.2 K, x2 = 0.4739 | 1.4015
308.2 K, x2 = 0.5337 | 1.3985
308.2 K, x2 = 0.5753 | 1.3955
308.2 K, x2 = 0.6159 | 1.3925
308.2 K, x2 = 0.688 | 1.3875
308.2 K, x2 = 0.725 | 1.381
308.2 K, x2 = 0.7785 | 1.3765
308.2 K, x2 = 0.8234 | 1.3705
308.2 K, x2 = 0.8807 | 1.361
308.2 K, x2 = 0.9183 | 1.354
308.2 K, x2 = 0.9591 | 1.3435
308.2 K, x2 = 0.9777 | 1.3385
318.2 K, x2 = 0.0993 | 1.414
318.2 K, x2 = 0.1962 | 1.4105
318.2 K, x2 = 0.2943 | 1.4075
318.2 K, x2 = 0.3321 | 1.406
318.2 K, x2 = 0.4172 | 1.4015
318.2 K, x2 = 0.473 | 1.3985
318.2 K, x2 = 0.5315 | 1.395
318.2 K, x2 = 0.5744 | 1.3925
318.2 K, x2 = 0.6147 | 1.3895
318.2 K, x2 = 0.6871 | 1.384
318.2 K, x2 = 0.7243 | 1.3785
318.2 K, x2 = 0.7779 | 1.374
318.2 K, x2 = 0.8228 | 1.368
318.2 K, x2 = 0.8803 | 1.3585
318.2 K, x2 = 0.9181 | 1.3505
318.2 K, x2 = 0.959 | 1.3425
318.2 K, x2 = 0.9777 | 1.337
